Test results: patent US11339144B2 (Navitor Pharmaceuticals, Inc., priority 2017, dated 2022)

Key:
[1] = target: HA-GST-Rheb (GTP-γ-S loaded) activating mTORC1 (Homo sapiens (Human), UniProt Q15382); assay: Rheb-dependent in vitro kinase assay (Rheb-IVK; LanthaScreen or Western readout); type: biochemical; conditions: Rheb-dependent in vitro kinase assay; read-out: IVK IC50
[2] = target: Rheb (Homo sapiens (Human), UniProt Q15382); assay: Affinity Selection Mass Spectrometry (ASMS); type: binding; conditions: affinity (R3/R0) in Affinity Selection Mass Spectrometry assay
Method in brief: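 Human Rheb (60 μM) with GDP (180 μM) and each compound at 2 μM, protein-plus versus protein-minus, incubated 30 min at room temperature, then washed by 10 kDa ultrafiltration. Retained ligand was released with MeCN and detected by UPLC-Q-TOF MS.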

Chain of Rheb (Q15382 1-169 limits assumed): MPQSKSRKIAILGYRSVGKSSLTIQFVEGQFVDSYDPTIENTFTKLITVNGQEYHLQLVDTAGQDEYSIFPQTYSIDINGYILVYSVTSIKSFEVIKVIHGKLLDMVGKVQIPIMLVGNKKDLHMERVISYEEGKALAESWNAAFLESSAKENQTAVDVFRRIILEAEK
Chain of HA-GST-Rheb (GTP-γ-S loaded) activating mTORC1 (Q15382 1-181): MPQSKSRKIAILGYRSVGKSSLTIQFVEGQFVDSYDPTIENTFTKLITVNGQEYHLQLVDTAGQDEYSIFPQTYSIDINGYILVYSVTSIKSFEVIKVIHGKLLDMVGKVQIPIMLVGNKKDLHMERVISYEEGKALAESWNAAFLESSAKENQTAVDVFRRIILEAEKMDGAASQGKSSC

Molecule	IC50 [1]	ASMS (R3/R0) [2]
Cc1c(-c2ccc(Cn3c(C(=O)O)cc4c(Sc5ccc(Cl)cc5Cl)cc(Cl)cc43)cc2)cnn1C [I-77, 6-chloro-4-(2,4-dichlorophenylthio)-1-(4-(1,5-dimethyl-1H-pyrazol-4-yl)benzyl)-1H-indole-2-carboxylic acid]	< 10 µM	B (an affinity (R3/R0) between 100% and 20%)
Cn1ccc2c(OC3CCNCC3)cccc21 [I-295]	> 100 µM	C (an affinity (R3/R0)<20%)
CC(=O)c1cc2c(Oc3ccccc3)cc(Cl)cc2[nH]1 [I-150]	> 100 µM	C (an affinity (R3/R0)<20%)
COc1ccc(Sc2cc(Cl)cc3[nH]c(CO)cc23)cc1OC [I-135]	> 100 µM	B (an affinity (R3/R0) between 100% and 20%)
4-((6-chloro-4-(3,4-dichlorophenoxy)-1H-indol-1-yl)methyl)benzoic acid [I-146]	< 10 µM	B (an affinity (R3/R0) between 100% and 20%)
CC(c1ccc(C(=O)N(C)C)cc1)n1c(C(=O)O)cc2c(Br)cc(Sc3ccc(Cl)c(Cl)c3)cc21 (stereo not shown) [I-5, 4-bromo-6-(3,4-dichlorophenylthio)-1-(1-(4-(dimethylcarbamoyl)phenyl)ethyl)-1H-indole-2-carboxylic acid]	< 10 µM	B (an affinity (R3/R0) between 100% and 20%)
O=C(O)c1ccc(Cn2c(C(=O)O)cc3c(Br)cc(Oc4ccccc4)cc32)cc1 [I-165, 4-bromo-1-(4-carboxybenzyl)-6-phenoxy-1H-indole-2-carboxylic acid]	10 to 100 µM	B (an affinity (R3/R0) between 100% and 20%)
Nc1ccc(N2CCN(C(=O)c3cc4c(Sc5ccc(Cl)cc5Cl)cc(Cl)cc4[nH]3)CC2)cc1F [I-92, (4-(4-amino-3-fluorophenyl)piperazin-1-yl)(6-chloro-4-(2,4-dichlorophenylthio)-1H-indol-2-yl)methanone]	10 to 100 µM	B (an affinity (R3/R0) between 100% and 20%)
Fc1ccccc1Oc1cccc2[nH]ccc12 [I-288, 4-(2-fluorophenoxy)-1H-indole]	100 to 300 µM	C (an affinity (R3/R0)<20%)
OCc1nc2c(OCC3CCCCC3O)cc(Cl)cc2[nH]1 (stereo not shown) [I-390, 2-((6-chloro-2-(hydroxymethyl)-1H-benzo[d]imidazol-4-yloxy)methyl)cyclohexanol]	100 to 300 µM	C (an affinity (R3/R0)<20%)
CC(C)(C)OC(=O)N1CCN(C(=O)c2ccc(Cn3c(C(=O)O)cc4c(Br)cc(Sc5ccc(Cl)c(Cl)c5)cc43)cc2)CC1 [I-44]	> 100 µM	B (an affinity (R3/R0) between 100% and 20%)
O=C(Nc1ccc(-c2cnco2)cc1)c1cc2c(Sc3ccc(Cl)cc3)cc(Cl)cc2[nH]1 [I-128, 6-chloro-4-(4-chlorophenylthio)-N-(4-(oxazol-5-yl)phenyl)-1H-indole-2-carboxamide]	< 10 µM	A (an affinity (R3/R0)>100%)
CN(C)C(=O)c1ccc(Cn2c(C(=O)O)cc3c(Cl)nc(Sc4ccc(Cl)c(Cl)c4)cc32)cc1 [I-4, 4-chloro-6-(3,4-dichlorophenylthio)-1-(4-(dimethylcarbamoyl)benzyl)-1H-pyrrolo[3,2-c]pyridine-2-carboxylic acid]	10 to 100 µM	B (an affinity (R3/R0) between 100% and 20%)
O=C(O)c1cc2c(Sc3ccc(Cl)cc3)cc(Cl)cc2[nH]1 [I-190, 6-chloro-4-(4-chlorophenylthio)-1H-indole-2-carboxylic acid]	10 to 100 µM	B (an affinity (R3/R0) between 100% and 20%)
CC(C)(C)OC(=O)N1CCN(c2cc(-c3nc4cc(Cl)c(Cl)cc4[nH]3)ccn2)CC1 [I-347]	> 100 µM	B (an affinity (R3/R0) between 100% and 20%)
O=C(O)c1cc2c(-c3cc(Cl)cc(Cl)c3)cc(Cl)cc2[nH]1 [I-49, 6-chloro-4-(3,5-dichlorophenyl)-1H-indole-2-carboxylic acid]	< 10 µM	B (an affinity (R3/R0) between 100% and 20%)

Molecule	IC50 [1]	ASMS (R3/R0) [2]
OCc1cc2c(Sc3cccc4cccnc34)cc(Cl)cc2[nH]1 [I-74, (6-chloro-4-(quinolin-8-ylthio)-1H-indol-2-yl)methanol]	10 to 100 µM	B (an affinity (R3/R0) between 100% and 20%)
O=C(O)Cn1c(-c2ccnc3[nH]ccc23)nc2c(Sc3ccc(Cl)cc3)c(Cl)ccc21 [I-322]	> 100 µM	C (an affinity (R3/R0)<20%)
Clc1cccc(Oc2cccc3[nH]ccc23)c1Cl [I-254, 4-(2,3-Dichlorophenoxy)-1H-indole]	10 to 100 µM	B (an affinity (R3/R0) between 100% and 20%)
O=C(O)c1cc2c(Sc3ccc(Oc4ccccc4)cc3)cc(Cl)cc2[nH]1 [I-118, 6-chloro-4-(4-phenoxyphenylthio)-1H-indole-2-carboxylic acid]	< 10 µM	B (an affinity (R3/R0) between 100% and 20%)
OCc1nc2cc(OCc3cccc(F)c3)c(Cl)cc2[nH]1 [I-484, (6-chloro-5-(3-fluorobenzyloxy)-1H-benzo[d]imidazol-2-yl)methanol]	100 to 300 µM	B (an affinity (R3/R0) between 100% and 20%)
Clc1cc2nc(-c3ccc(-c4nn[nH]n4)cc3)[nH]c2cc1Cl [I-344]	> 100 µM	A (an affinity (R3/R0)>100%)
NC(=O)c1cc2c(Oc3ccccc3)cc(Cl)cc2[nH]1 [I-169, 6-chloro-4-phenoxy-1H-indole-2-carboxamide]	10 to 100 µM	B (an affinity (R3/R0) between 100% and 20%)
CN(C)C(=O)c1ccc(Cn2c(C(=O)O)cc3c(Br)cc(SCCc4ccc(Cl)c(Cl)c4)cc32)cc1 [I-25, 4-bromo-6-(3,4-dichlorophenethylthio)-1-(4-(dimethylcarbamoyl)benzyl)-1H-indole-2-carboxylic acid]	< 10 µM	B (an affinity (R3/R0) between 100% and 20%)
O=C(O)c1nc2c(OCc3ccc(Cl)cc3)c(Cl)c(Cl)cc2[nH]1 [I-333]	10 to 100 µM	A (an affinity (R3/R0)>100%)
CS(=O)(=O)CCNC(=O)c1cc2c(Sc3ccc(Cl)cc3)cc(Cl)cc2[nH]1 [I-137]	> 100 µM	A (an affinity (R3/R0)>100%)
Nc1cc(CCOc2c(Cl)c(Cl)cc3[nH]c(CO)nc23)ccn1 [I-382]	100 to 300 µM	C (an affinity (R3/R0)<20%)
CN1CCC(CCNC(=O)c2cc3c(Sc4ccc(Cl)cc4Cl)cc(Cl)c(Cl)c3[nH]2)CC1 [I-27]	> 100 µM	B (an affinity (R3/R0) between 100% and 20%)
O=C(NC1CCN(Cc2ccccc2)CC1)c1cc2c(Sc3ccc(Cl)cc3Cl)cc(Cl)cc2[nH]1 [I-117]	> 3 µM	C (an affinity (R3/R0)<20%)
Clc1cc2nc(-c3ccnc(-c4ccccc4)c3)[nH]c2cc1Cl [I-368]	> 100 µM	B (an affinity (R3/R0) between 100% and 20%)
COCc1cc2c(Br)cc(Sc3ccc(Cl)c(Cl)c3)cc2n1Cc1ccc(C(=O)N(C)C)cc1 [I-34]	> 100 µM	B (an affinity (R3/R0) between 100% and 20%)
OCc1cc2c(Oc3ccccc3)cc(Cl)cc2[nH]1 [I-291, (6-Chloro-4-phenoxy-1H-indol-2-yl)methanol]	10 to 100 µM	C (an affinity (R3/R0)<20%)
